# Data from ChEMBL document CHEMBL5137021, “Organotropic dendrons with high potency as HIV-1, HIV-2 and EV-A71 cell entry inhibitors” (Eur J Med Chem, 2022).
# Assays:
# Enterovirus A71 [1] = test: Antiviral activity against EV-A71 genotype C4 TW/1956/05 infected in RD cells assessed as protection against virus induced cytopatheic effect measured after 5 days by MTS assay; assay type: functional, organism-based; conditions: Enterovirus A, genotype C4 TW/1956/05, RD, 120 h
# [2] = Selectivity index, ratio of CC50 for human RD cells to EC50 for antiviral activity against EV-A71; assay type: toxicity; conditions: read-out: Ratio CC50/EC50
# rhinovirus A2 = test: Antiviral activity against Rhinovirus 2 infected in HeLa cells assessed as protection against virus induced cytopatheic effect measured after 5 days by MTS assay; assay type: functional, organism-based, Enterovirus; conditions: Rhinovirus A, 2, HeLa, 120 h
# [3] = Cytotoxicity against human MT4 cells assessed as cell viability measured after 5 days by MTS assay; assay type: toxicity, cell-based; conditions: time 5 day
# [4] = Selectivity index, ratio of CC50 for human MT4 cells to EC50 for antiviral activity against HIV-1 NL4.3; assay type: toxicity; conditions: read-out: Ratio CC50/EC50
# Enterovirus A71 [5] = test: Antiviral activity against Enterovirus A71 BrCr harboring VP1_S184T mutant infected in RD cells assessed as protection against virus induced cytopatheic effect measured after 5 days by MTS assay; assay type: functional, organism-based
# Enterovirus A71 [6] = test: Antiviral activity against Enterovirus A71 BrCr harboring VP1_S184T_P246S mutant infected in RD cells assessed as protection against virus induced cytopatheic effect measured after 5 days by MTS assay; assay type: functional, organism-based
# Enterovirus A71 [7] = test: Antiviral activity against EV-A71 genotype A BrCr infected in RD cells assessed as protection against virus induced cytopatheic effect measured after 5 days by MTS assay; assay type: functional, organism-based; conditions: 120 h
# [8] = Cytotoxicity against human RD cells assessed as cell viability measured after 5 days by MTS assay; assay type: toxicity, cell-based; conditions: time 5 day
# rhinovirus B14 = test: Antiviral activity against Rhinovirus 14 infected in HeLa cells assessed as protection against virus induced cytopatheic effect measured after 5 days by MTS assay; assay type: functional, organism-based, Enterovirus; conditions: Rhinovirus B, 14, HeLa, 120 h
# Enterovirus A71 [9] = test: Antiviral activity against EV-A71 genotype C2 H08300 461#812 infected in RD cells assessed as protection against virus induced cytopatheic effect measured after 5 days by MTS assay; assay type: functional, organism-based; conditions: Enterovirus A, genotype C2 H08300 461#812, RD, 120 h
# [10] = system: Human immunodeficiency virus 2; test: Antiviral activity against HIV2 ROD infected in human MT4 cells assessed as protection against virus induced cytopatheic effect measured after 5 days by MTS assay; assay type: functional, organism-based; conditions: Human immunodeficiency virus 2, ROD, MT4, 120 h
# Enterovirus A71 [11] = test: Antiviral activity against Enterovirus A71 BrCr harboring VP1_P246S mutant infected in RD cells assessed as protection against virus induced cytopatheic effect measured after 5 days by MTS assay; assay type: functional, organism-based
# Coxsackievirus B3 = test: Antiviral activity against Coxsackievirus B3 Nancy strain infected in Vero cells assessed as protection against virus induced cytopatheic effect measured after 5 days by MTS assay; assay type: functional, organism-based; conditions: Enterovirus B, 120 h
# [12] = system: Human immunodeficiency virus 1; test: Antiviral activity against HIV1 NL4-3 infected in human MT4 cells assessed as protection against virus induced cytopatheic effect measured after 5 days by MTS assay; assay type: functional, organism-based; conditions: Human immunodeficiency virus 1, NL4-3, MT4, 120 h
# Enterovirus A71 [13] = test: Antiviral activity against Enterovirus A71 BrCr infected in RD cells assessed as protection against virus induced cytopatheic effect measured after 5 days by MTS assay; assay type: functional, organism-based; conditions: Enterovirus A, 120 h
# Enterovirus A71 [14] = test: Antiviral activity against EV-A71 infected in RD cells assessed as protection against virus induced cytopatheic effect measured after 5 days by MTS assay; assay type: functional, organism-based; conditions: Enterovirus A, 120 h
# Enterovirus A71 [15] = test: Antiviral activity against EV-A71 genotype B2 11316 infected in RD cells assessed as protection against virus induced cytopatheic effect measured after 5 days by MTS assay; assay type: functional, organism-based; conditions: Enterovirus A, genotype B2 11316, RD, 120 h
# enterovirus D68 = test: Antiviral activity against Enterovirus D68 CU70 infected in HeLa cells assessed as protection against virus induced cytopatheic effect measured after 5 days by MTS assay; assay type: functional, organism-based; conditions: Enterovirus D, 120 h
# Enterovirus A71 [16] = test: Antiviral activity against EV-A71 genotype B5 TW/70902/08 infected in RD cells assessed as protection against virus induced cytopatheic effect measured after 5 days by MTS assay; assay type: functional, organism-based; conditions: Enterovirus A, genotype B5 TW/70902/08, RD, 120 h
# [17] = Ex vivo biodistribution in ip dosed C57BL/6 mouse intestine measured after 24 hrs by fluorescence analysis; assay type: ADME, organism-based
# [18] = Ex vivo biodistribution in ip dosed C57BL/6 mouse lung measured after 72 hrs by fluorescence analysis; assay type: ADME, organism-based
# [19] = Ex vivo biodistribution in iv dosed C57BL/6 mouse intestine measured after 2 hrs by fluorescence analysis; assay type: ADME, organism-based
# [20] = Ex vivo biodistribution in ip dosed C57BL/6 mouse lung measured after 24 hrs by fluorescence analysis; assay type: ADME, organism-based
# [21] = Ex vivo biodistribution in ip dosed C57BL/6 mouse intestine measured after 2 hrs by fluorescence analysis; assay type: ADME, organism-based
# [22] = Ex vivo biodistribution in ip dosed C57BL/6 mouse intestine measured after 72 hrs by fluorescence analysis; assay type: ADME, organism-based
smiles,measurement,setting,value
O=C(CCC(CCC(=O)NC(Cc1c(-c2cc(C(=O)O)cc(C(=O)O)c2)[nH]c2ccccc12)C(=O)O)(CCC(=O)NC(Cc1c(-c2cc(C(=O)O)cc(C(=O)O)c2)[nH]c2ccccc12)C(=O)O)NC(=O)CCCCCCNC(=O)Nc1cc(C(=O)O)cc(C(=O)O)c1)NC(Cc1c(-c2cc(C(=O)O)cc(C(=O)O)c2)[nH]c2ccccc12)C(=O)O (stereo unspecified),EC50,Enterovirus A71 [1],6 nM
same,selectivity ratio,[2],> 2000
same,EC50,rhinovirus A2,> 50000 nM
same,CC50 at 120 h,[3],> 100000 nM
same,selectivity ratio,[4],> 92
same,EC50,Enterovirus A71 [5],300 nM
same,EC50,Enterovirus A71 [6],300 nM
same,EC50,Enterovirus A71 [7],42 nM
same,CC50 at 120 h,[8],> 100000 nM
same,EC50,rhinovirus B14,> 50000 nM
same,EC50,Enterovirus A71 [9],91 nM
same,EC50,[10],50 nM
same,EC50,Enterovirus A71 [11],60 nM
same,EC50,Coxsackievirus B3,> 50000 nM
same,EC50,[12],1090 nM
same,EC50,Enterovirus A71 [13],40 nM
same,EC50,Enterovirus A71 [14],50 nM
same,EC50,Enterovirus A71 [15],75 nM
same,EC50,enterovirus D68,> 50000 nM
same,EC50,Enterovirus A71 [16],2 nM
CC1(CCCCCCC(=O)NC(CCC(=O)NC(Cc2c(-c3cc(C(=O)O)cc(C(=O)O)c3)[nH]c3ccccc23)C(=O)O)(CCC(=O)NC(Cc2c(-c3cc(C(=O)O)cc(C(=O)O)c3)[nH]c3ccccc23)C(=O)O)CCC(=O)NC(Cc2c(-c3cc(C(=O)O)cc(C(=O)O)c3)[nH]c3ccccc23)C(=O)O)C(/C=C/C=C/C=C2/N(CCCS(=O)(=O)O)c3ccc(S(=O)(=O)O)cc3C2(C)C)=[N+](CCCS(=O)(=O)O)c2ccc(S(=O)(=O)O)cc21.[Na+].[Na+].[Na+].[Na+].[Na+].[Na+].[Na+].[Na+].[Na+].[Na+].[Na+].[Na+] (stereo unspecified),Drug uptake,[17],Active
same,Drug uptake,[18],Active
same,Drug uptake,[19],Active
same,Drug uptake,[20],Active
same,Drug uptake,[21],Active
same,Drug uptake,[22],Active
